Values joined by “and” are separate entries in the source; they are usually repeats but may differ in a detail not shown here. Equal entries are not always repeated. Toxic doses and inconclusive results are not listed. The calls were made as follows: active = survival T/C of 150% or more; inactive = T/C below 125% in these data.
Tested on: P388 leukemia ip, CD2F1 mice, survival T/C
Assay: NCI In Vivo Anticancer Drug Screen. Data for tumor model P388 Leukemia (intraperitoneal) in CD2F1 (CDF1) mice
Settings: endpoint: median survival time, higher = longer survival
Procedure, shortened: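 Mice carrying the transplanted tumor received test compound or vehicle. Survival was recorded in each group, and the value is the treated-group measurement divided by that of the vehicle-treated control group.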

[1] = dose: 50.0 mg/kg/injection, schedule: Q01DX009 (ip), vehicle: Klucel (hydroxypropylcellulose) (HPC)
[2] = dose: 100.0 mg/kg/injection, schedule: Q01DX009 (ip), vehicle: Klucel (hydroxypropylcellulose) (HPC)
[3] = dose: 200.0 mg/kg/injection, schedule: Q01DX009 (ip), vehicle: Klucel (hydroxypropylcellulose) (HPC)
[4] = dose: 50.0 mg/kg/injection, schedule: Q01DX005 (ip), vehicle: Klucel (hydroxypropylcellulose) (HPC)
[5] = dose: 100.0 mg/kg/injection, schedule: Q01DX005 (ip), vehicle: Klucel (hydroxypropylcellulose) (HPC)
[6] = dose: 60.0 mg/kg/injection, schedule: Q01DX005 (ip), vehicle: saline with Tween-80
[7] = dose: 120.0 mg/kg/injection, schedule: Q01DX005 (ip), vehicle: saline with Tween-80
[8] = dose: 240.0 mg/kg/injection, schedule: Q01DX005 (ip), vehicle: saline with Tween-80

Measured: T/C

N/C(=C\c1cnc2ccccc2n1)c1ccccc1Cl
inactive: dose: 60.0 mg/kg/injection, schedule: Q01DX005 (ip), vehicle: Klucel (hydroxypropylcellulose) (HPC) 91 % of control | dose: 120.0 mg/kg/injection, schedule: Q01DX005 (ip), vehicle: Klucel (hydroxypropylcellulose) (HPC) 89 % of control

CCNC1=CC(=O)c2ncccc2C1=O
inactive: dose: 3.13 mg/kg/injection, schedule: Q01DX009 (ip), vehicle: DMSO 99 % of control | dose: 6.25 mg/kg/injection, schedule: Q01DX009 (ip), vehicle: DMSO 100 % of control | dose: 12.5 mg/kg/injection, schedule: Q01DX009 (ip), vehicle: DMSO 99 % of control | dose: 25.0 mg/kg/injection, schedule: Q01DX009 (ip), vehicle: DMSO 95 % of control

Cc1ccccc1/C=C1/C(=O)C(c2ccccc2)=C1c1ccccc1
inactive: dose: 100.0 mg/kg/injection, schedule: Q01DX001 (ip), vehicle: Klucel (hydroxypropylcellulose) (HPC) 105 % of control | dose: 200.0 mg/kg/injection, schedule: Q01DX001 (ip), vehicle: Klucel (hydroxypropylcellulose) (HPC) 106 % of control | dose: 400.0 mg/kg/injection, schedule: Q01DX001 (ip), vehicle: Klucel (hydroxypropylcellulose) (HPC) 100 % of control

Cc1ccc2nc(N/N=C/c3cccs3)sc2c1
inactive: [1] 100 % of control | [2] 101 % of control | [3] 94 % of control

CC(C)C1[NH][Sn]2([NH]C(C(C)C)C(=O)[O]2)[O]C1=O (stereo unspecified)
inactive: [4] 97 % of control | [5] 106 % of control

CCOc1ccccc1/C=N\NC(=O)C(=O)N/N=C\c1ccccc1OCC
inactive: dose: 1.56 mg/kg/injection, schedule: Q01DX009 (ip), vehicle: Klucel (hydroxypropylcellulose) (HPC) 98 % of control | dose: 3.12 mg/kg/injection, schedule: Q01DX009 (ip), vehicle: Klucel (hydroxypropylcellulose) (HPC) 94 % of control | dose: 6.25 mg/kg/injection, schedule: Q01DX009 (ip), vehicle: Klucel (hydroxypropylcellulose) (HPC) 86 % of control and 91 % of control | [1] 90 % of control | [3] 97 % of control

NC(=O)c1ccc[n+](CCC[n+]2cccc(C(N)=O)c2)c1
inactive: dose: 60.0 mg/kg/injection, schedule: Q01DX005 (ip), vehicle: saline 103 % of control | dose: 120.0 mg/kg/injection, schedule: Q01DX005 (ip), vehicle: saline 101 % of control | dose: 240.0 mg/kg/injection, schedule: Q01DX005 (ip), vehicle: saline 99 % of control

ClCCc1cnc[nH]1
inactive: dose: 6.25 mg/kg/injection, schedule: Q01DX009 (ip), vehicle: water 101 % of control | dose: 12.5 mg/kg/injection, schedule: Q01DX009 (ip), vehicle: water 101 % of control | dose: 25.0 mg/kg/injection, schedule: Q01DX009 (ip), vehicle: water 108 % of control | dose: 50.0 mg/kg/injection, schedule: Q01DX009 (ip), vehicle: water 110 % of control | dose: 100.0 mg/kg/injection, schedule: Q01DX009 (ip), vehicle: water 95 % of control

CC(C)(C)OOC(=O)/C=C/c1ccccc1
inactive: [6] 101 % of control | [7] 108 % of control | [8] 92 % of control

Cc1ccc(C2(Br)C(=O)c3ccccc3C2=O)cc1
inactive: dose: 100.0 mg/kg/injection, schedule: Q04DX002 (ip), vehicle: saline 103 % of control | dose: 200.0 mg/kg/injection, schedule: Q04DX002 (ip), vehicle: saline 102 % of control | dose: 400.0 mg/kg/injection, schedule: Q04DX002 (ip), vehicle: saline 101 % of control

CC(C)(C)OC(=O)C(N(Cc1ccccc1)Cc1ccccc1)N(Cc1ccccc1)Cc1ccccc1
inactive: [6] 88 % of control | [7] 88 % of control | [8] 86 % of control

Clc1cccc(Cl)c1C(Cl)Cl
inactive: dose: 100.0 mg/kg/injection, schedule: Q04DX003 (ip), vehicle: saline with Tween-80 95 % of control | dose: 200.0 mg/kg/injection, schedule: Q04DX003 (ip), vehicle: saline with Tween-80 109 % of control | dose: 400.0 mg/kg/injection, schedule: Q04DX003 (ip), vehicle: saline with Tween-80 100 % of control

O=C(O)CSc1nc2ccc(N3C(=O)C4C5C=CC(C5)C4C3=O)cc2s1 (stereo unspecified)
inactive: [1] 90 % of control | [2] 105 % of control | [3] 99 % of control

CCCCCCCNc1nn[nH]n1
inactive: [4] 100 % of control | [5] 104 % of control | dose: 200.0 mg/kg/injection, schedule: Q01DX005 (ip), vehicle: Klucel (hydroxypropylcellulose) (HPC) 98 % of control

Cn1cnc2cc(N3CCCCC3)c(Nc3ccc([N+](=O)[O-])cc3[N+](=O)[O-])cc2c1=O
inactive: dose: 100.0 mg/kg/injection, schedule: Q04DX003 (ip), vehicle: Klucel (hydroxypropylcellulose) (HPC) 103 % of control | dose: 200.0 mg/kg/injection, schedule: Q04DX003 (ip), vehicle: Klucel (hydroxypropylcellulose) (HPC) 98 % of control | dose: 400.0 mg/kg/injection, schedule: Q04DX003 (ip), vehicle: Klucel (hydroxypropylcellulose) (HPC) 95 % of control

O=C(NCN1CCOCC1)Nc1ccccc1
inactive: dose: 50.0 mg/kg/injection, schedule: Q01DX005 (ip), vehicle: saline with Tween-80 115 % of control | dose: 100.0 mg/kg/injection, schedule: Q01DX005 (ip), vehicle: saline with Tween-80 115 % of control | dose: 200.0 mg/kg/injection, schedule: Q01DX005 (ip), vehicle: saline with Tween-80 112 % of control

From PubChem BioAssay AID330 (DTP/NCI, 2004)
